Assay [1] deals with endogenous kinases and other proteins enriched by Kinobeads from mixed lysates of K-562, COLO-205, MV-4-11, SK-N-BE(2) and OVCAR-8. The assay can be described thus: Kinobeads competition binding profiling, two doses (100 nM and 1 µM).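 For all read-outs here: inhibitor preincubated 45 min at 4 °C in cell lysate, then bead pulldown. Bound protein quantified by label-free mass spectrometry relative to DMSO vehicle control.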 The note with it: for detection of the designated target by Kinobeads: previous chemical probes; for selectivity in the Kinobeads assay (CATDSmost potent): in words. Also on record: species or system human.

The target in assay [2] is T1, ABL1 (Homo sapiens, UniProt P00519). Put plainly: Kinobeads two-dose competition binding: ABL1. The note with it: sheet "Kinobeads Drugmatrix - all"; unit inferred; read-out: Kinobeads Drugmatrix - all: apparent Kd, ABL1.
T1 sequence (P00519 28-1130 limits assumed): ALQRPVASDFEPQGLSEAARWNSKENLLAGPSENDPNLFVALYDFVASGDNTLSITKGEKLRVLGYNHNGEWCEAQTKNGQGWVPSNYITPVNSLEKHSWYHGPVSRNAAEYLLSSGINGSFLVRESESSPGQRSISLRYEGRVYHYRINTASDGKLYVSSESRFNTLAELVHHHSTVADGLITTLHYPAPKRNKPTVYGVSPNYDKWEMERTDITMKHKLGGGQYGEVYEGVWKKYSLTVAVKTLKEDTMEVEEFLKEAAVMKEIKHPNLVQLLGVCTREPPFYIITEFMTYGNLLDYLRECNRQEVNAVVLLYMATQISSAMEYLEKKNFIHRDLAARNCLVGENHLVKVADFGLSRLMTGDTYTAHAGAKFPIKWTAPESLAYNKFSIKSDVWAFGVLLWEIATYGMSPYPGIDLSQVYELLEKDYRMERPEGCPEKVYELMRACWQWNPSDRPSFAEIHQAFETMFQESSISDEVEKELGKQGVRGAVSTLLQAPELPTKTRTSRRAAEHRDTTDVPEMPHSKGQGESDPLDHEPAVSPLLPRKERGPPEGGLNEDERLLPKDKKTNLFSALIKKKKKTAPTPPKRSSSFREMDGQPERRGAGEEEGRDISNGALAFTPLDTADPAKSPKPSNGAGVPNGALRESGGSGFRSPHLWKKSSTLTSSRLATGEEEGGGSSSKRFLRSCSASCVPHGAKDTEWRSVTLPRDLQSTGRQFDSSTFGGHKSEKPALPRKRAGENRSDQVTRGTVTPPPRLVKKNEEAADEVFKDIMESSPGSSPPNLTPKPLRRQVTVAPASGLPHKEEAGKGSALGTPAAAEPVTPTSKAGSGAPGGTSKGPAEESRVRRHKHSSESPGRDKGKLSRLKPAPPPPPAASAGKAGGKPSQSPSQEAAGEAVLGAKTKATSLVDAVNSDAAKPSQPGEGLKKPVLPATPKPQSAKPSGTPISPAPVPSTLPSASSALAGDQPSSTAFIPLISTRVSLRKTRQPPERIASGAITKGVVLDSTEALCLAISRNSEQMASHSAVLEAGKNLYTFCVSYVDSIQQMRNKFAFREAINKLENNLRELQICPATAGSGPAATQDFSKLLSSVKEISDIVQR
The next assay deals with T2, ACAD11 (Homo sapiens, UniProt Q709F0).
T2 construct: endogenous in cells
T2 sequence (Q709F0 1-780): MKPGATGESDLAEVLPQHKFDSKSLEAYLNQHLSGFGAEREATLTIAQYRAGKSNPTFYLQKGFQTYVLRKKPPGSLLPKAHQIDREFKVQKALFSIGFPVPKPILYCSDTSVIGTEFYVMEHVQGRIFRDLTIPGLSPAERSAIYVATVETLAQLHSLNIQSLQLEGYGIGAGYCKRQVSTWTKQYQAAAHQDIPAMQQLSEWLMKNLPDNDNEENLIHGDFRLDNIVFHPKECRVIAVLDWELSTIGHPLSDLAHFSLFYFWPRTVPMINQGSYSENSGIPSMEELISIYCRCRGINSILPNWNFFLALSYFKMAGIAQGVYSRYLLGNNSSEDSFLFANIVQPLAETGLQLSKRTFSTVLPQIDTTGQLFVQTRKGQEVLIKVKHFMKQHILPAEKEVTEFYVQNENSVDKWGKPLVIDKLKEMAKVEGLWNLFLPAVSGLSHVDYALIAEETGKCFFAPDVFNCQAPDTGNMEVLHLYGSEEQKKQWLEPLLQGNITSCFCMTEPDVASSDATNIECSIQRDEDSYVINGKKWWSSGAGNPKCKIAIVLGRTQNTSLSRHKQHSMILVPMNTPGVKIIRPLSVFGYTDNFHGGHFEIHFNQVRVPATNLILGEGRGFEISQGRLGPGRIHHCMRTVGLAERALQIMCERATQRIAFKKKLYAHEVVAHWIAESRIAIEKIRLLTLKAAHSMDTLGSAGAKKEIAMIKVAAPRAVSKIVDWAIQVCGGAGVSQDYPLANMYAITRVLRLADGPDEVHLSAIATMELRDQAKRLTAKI
The assay can be described thus: Kinobeads two-dose competition binding: ACAD11. Conditions: sheet CATDS matrix 2; Gene Name ACAD11.

In the next assay the target is T3, AAK1 (Homo sapiens, UniProt Q2M2I8).
T3 construct: to maximize the representation of endogenous proteins; endogenous in cells
T3 sequence (Q2M2I8 whole entry): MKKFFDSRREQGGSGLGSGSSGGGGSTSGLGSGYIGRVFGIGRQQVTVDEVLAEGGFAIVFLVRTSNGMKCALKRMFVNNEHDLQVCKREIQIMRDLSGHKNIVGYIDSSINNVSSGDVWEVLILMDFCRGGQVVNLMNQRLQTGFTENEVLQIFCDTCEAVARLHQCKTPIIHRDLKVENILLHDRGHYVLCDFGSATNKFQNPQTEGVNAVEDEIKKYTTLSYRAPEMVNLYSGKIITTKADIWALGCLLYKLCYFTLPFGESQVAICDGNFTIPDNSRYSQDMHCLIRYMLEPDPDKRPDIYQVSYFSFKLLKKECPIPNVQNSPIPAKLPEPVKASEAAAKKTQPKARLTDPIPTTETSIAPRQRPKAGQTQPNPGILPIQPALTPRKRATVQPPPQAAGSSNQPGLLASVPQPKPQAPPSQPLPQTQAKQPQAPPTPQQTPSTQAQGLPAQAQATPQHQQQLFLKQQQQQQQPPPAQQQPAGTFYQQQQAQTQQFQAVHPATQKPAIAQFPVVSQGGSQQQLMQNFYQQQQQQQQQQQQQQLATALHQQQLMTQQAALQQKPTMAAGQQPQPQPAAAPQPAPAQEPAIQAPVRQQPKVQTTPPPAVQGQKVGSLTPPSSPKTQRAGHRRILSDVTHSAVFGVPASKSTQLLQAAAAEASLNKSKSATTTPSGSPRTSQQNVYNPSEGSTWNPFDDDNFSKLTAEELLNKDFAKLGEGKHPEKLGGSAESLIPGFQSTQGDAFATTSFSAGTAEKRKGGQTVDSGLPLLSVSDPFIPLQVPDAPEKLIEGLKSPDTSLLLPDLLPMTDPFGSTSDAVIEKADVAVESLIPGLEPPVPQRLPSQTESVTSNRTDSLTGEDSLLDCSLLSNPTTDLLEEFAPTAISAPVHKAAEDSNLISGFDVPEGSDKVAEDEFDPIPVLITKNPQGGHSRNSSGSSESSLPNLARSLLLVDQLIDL
Put plainly: Kinobeads two-dose competition binding: AAK1.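 For all read-outs here: kinobeads competition pulldown from cell lysate, compound preincubated 45 min at 4 °C, bead-bound protein measured by label-free mass spectrometry against DMSO vehicle control.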 Conditions: for CATDS: sheet CATDS matrix 2, Gene Name AAK1; for potency estimated from few doses: sheet "Kinobeads Drugmatrix - all", unit inferred, same values below 1000 recur in sheet "nanomolar", read-out: Kinobeads Drugmatrix - all: apparent Kd, AAK1.

Assay [3] deals with T4, ABL2 (Homo sapiens, UniProt P42684).
T4 construct: endogenous in cells
T4 sequence (P42684 whole entry): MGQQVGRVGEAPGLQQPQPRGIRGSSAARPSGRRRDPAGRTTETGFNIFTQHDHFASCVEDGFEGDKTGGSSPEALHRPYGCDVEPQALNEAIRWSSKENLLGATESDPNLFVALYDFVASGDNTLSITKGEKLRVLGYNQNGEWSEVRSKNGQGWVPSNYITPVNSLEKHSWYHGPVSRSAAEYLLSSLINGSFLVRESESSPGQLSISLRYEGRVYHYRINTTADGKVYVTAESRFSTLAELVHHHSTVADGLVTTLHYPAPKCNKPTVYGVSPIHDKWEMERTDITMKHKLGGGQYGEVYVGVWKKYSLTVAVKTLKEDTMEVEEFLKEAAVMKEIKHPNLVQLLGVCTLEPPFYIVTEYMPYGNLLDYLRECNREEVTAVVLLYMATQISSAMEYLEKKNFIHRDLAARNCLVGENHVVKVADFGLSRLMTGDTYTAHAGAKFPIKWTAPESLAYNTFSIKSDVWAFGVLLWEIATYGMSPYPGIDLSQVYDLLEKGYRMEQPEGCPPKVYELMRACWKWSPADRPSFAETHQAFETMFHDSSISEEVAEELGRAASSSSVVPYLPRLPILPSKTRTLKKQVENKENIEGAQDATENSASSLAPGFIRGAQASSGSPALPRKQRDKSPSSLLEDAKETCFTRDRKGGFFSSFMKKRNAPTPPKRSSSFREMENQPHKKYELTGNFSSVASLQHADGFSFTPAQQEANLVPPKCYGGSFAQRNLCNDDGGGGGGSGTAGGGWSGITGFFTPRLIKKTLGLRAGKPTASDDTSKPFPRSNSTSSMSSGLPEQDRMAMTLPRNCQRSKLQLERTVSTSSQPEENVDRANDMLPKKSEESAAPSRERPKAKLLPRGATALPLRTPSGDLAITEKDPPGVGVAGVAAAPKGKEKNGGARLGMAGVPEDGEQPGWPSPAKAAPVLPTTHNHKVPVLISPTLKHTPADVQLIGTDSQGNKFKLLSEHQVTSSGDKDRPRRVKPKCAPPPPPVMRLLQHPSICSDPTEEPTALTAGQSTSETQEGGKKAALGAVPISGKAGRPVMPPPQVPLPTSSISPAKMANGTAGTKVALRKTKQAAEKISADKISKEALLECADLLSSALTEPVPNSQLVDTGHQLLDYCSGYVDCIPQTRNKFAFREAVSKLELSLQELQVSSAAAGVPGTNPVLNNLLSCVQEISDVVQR
The assay can be described thus: Kinobeads two-dose competition binding: ABL2. The note with it: sheet CATDS matrix 2; Gene Name ABL2.

Assay [4] has as its target T1, ABL1. Put plainly: Kinobeads two-dose competition binding: ABL1. Conditions: sheet CATDS matrix 2; Gene Name ABL1.
Assay [5] has as its target T4, ABL2. Put plainly: Kinobeads two-dose competition binding: ABL2. The note with it: sheet "Kinobeads Drugmatrix - all"; unit inferred; read-out: Kinobeads Drugmatrix - all: apparent Kd, ABL2.
A further assay deals with T5, ACOX1 (Homo sapiens, UniProt Q15067).
T5 construct: endogenous in cells
T5 sequence (Q15067 1-660): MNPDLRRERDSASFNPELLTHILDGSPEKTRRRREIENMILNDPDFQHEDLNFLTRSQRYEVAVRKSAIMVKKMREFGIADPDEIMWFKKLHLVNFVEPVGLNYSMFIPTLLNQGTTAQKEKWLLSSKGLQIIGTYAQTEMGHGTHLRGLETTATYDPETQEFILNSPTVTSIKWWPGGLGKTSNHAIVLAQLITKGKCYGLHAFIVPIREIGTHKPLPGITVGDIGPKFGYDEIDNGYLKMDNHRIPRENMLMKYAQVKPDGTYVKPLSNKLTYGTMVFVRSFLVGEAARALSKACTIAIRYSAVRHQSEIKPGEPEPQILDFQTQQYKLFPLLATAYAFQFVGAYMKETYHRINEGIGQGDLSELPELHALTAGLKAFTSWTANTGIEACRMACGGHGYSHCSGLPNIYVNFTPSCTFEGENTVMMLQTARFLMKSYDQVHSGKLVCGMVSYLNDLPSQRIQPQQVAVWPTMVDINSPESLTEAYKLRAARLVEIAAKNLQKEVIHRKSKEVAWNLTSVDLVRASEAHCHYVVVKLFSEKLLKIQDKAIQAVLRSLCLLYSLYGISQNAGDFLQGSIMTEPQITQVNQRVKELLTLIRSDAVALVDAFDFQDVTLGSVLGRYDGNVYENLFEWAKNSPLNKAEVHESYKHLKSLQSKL
The assay can be described thus: Kinobeads two-dose competition binding: ACOX1.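 Note: competition of compounds with immobilized broad-spectrum kinase inhibitor beads in cell lysate at 100 and 1,000 nM, 45 min at 4 °C, bead-bound protein quantified by label-free MS versus DMSO.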 Conditions: sheet CATDS matrix 2; Gene Name ACOX1.

As to `O=C(NCCO)c1cccc(-c2cc(Nc3ccc(OC(F)(F)F)cc3)ncn2)c1` [GNF-5, reference compound], the “detection of the designated target by Kinobeads” value (“detection” for short) in assay [1] is reported as “failed to reveal their targets”.

For the compound `CN1C(=O)c2ccccc2N(C)c2nc(Nc3cnn(C4CCNCC4)c3)ncc21` [XMD-17-51, reference compound], the “number of targets in the Kinobead assay” value in assay [1] (two-dose Kinobeads) was about 50.

For the compound `CC(C)c1nc(-c2cccc(NS(=O)(=O)c3ccccc3)c2)c(-c2ccnc(Nc3ccc4c(c3)CN(C)CC4)n2)s1` [GSK1649598A], the potency estimated from few doses was 368 nM on ABL1 [2] and 93.8 nM on ABL2 [5]. Besides, the CATDS on ACAD11 is on record as 0; on AAK1, 0; at ABL2 [3] it was 0.03972; on ABL1 [4], 0.02015; on ACOX1 it was 0.

Regarding `CC(=O)N1CCN(c2ccc(Nc3nccc(-c4sc(C(C)C)nc4-c4cccc(NS(=O)(=O)c5ccccc5)c4)n3)cn2)CC1` [GSK1645872A], the figures for the potency estimated from few doses on ABL1 [2] and at ABL2 [5] were 746 nM and 166 nM, respectively. Further, the CATDS came to 0 at ACAD11; 0 on AAK1; 0.06803 on ABL2 [3]; 0.02989 at ABL1 [4]; 0 at ACOX1.

`COC[C@@H](C)N[C@H]1CC[C@H](Nc2cc(-c3cccc(NCC4(C#N)CCOCC4)n3)c(Cl)cn2)CC1` [NVP-2, reference compound]: the “detection” value in assay [1] is reported as “failed to reveal their targets”.

In the case of `CN(C)C/C=C/C(=O)Nc1ccc(C(=O)N2CCC[C@@H](Nc3ncc(Cl)c(-c4c[nH]c5ccccc45)n3)C2)cc1` [THZ531, reference compound], the “detection” value in assay [1] is listed as “failed to reveal their targets”.

As to `CCOc1cc(C(=O)N2CCC(N3CCN(C)CC3)CC2)ccc1Nc1ncc2c(n1)N(C1CCCC1)c1ccccc1C(=O)N2C` [ERK5-IN-1, reference compound], the CATDS on ACAD11, at AAK1, at ABL2 [3], at ABL1 [4] and at ACOX1 was 0 each time. Moreover, in assay [1], the “selectivity in the Kinobeads assay (CATDSmost potent)” value (from here on “selectivity in the Kinobeads assay”) was “very selective”.

In the case of `Clc1cc(Cl)cc(Nc2ccnc(Nc3cc(Cl)cc(Cl)c3)n2)c1` [GSK175726A], the results for the potency estimated from few doses on ABL1 [2], at AAK1 and on ABL2 [5] were 83.2 nM, 460 nM and 7.68 nM, respectively. Besides, the CATDS on ACAD11 worked out at 0; on AAK1, 0.01178; at ABL2 [3] it was 0.1551; at ABL1 [4], 0.026; on ACOX1 it was 0.

As for `COc1ccc(Nc2ncc(C#N)c(Nc3ccccc3C(N)=O)n2)cc1N1CCN(C)CC1` [GSK1558669A], the results for the potency estimated from few doses at ABL1 [2], on AAK1 and on ABL2 [5] were 112 nM, 164 nM and 334 nM, respectively. For the same compound, the CATDS at ACAD11 was determined as 0; on AAK1, 0.01049; on ABL2 [3], 0.008409; at ABL1 [4], 0.01209; at ACOX1 it was 0.

Regarding `O=C(O[C@H]1CN[C@H](C#Cc2cc3ncnc(Nc4ccc(OCc5cccc(F)c5)c(Cl)c4)c3s2)C1)N1CCOCC1` [GW869810X], the “selectivity in the Kinobeads assay” value in assay [1] is “very selective”.

Turning to `CC(C)c1nc(-c2ccc(F)c(NS(=O)(=O)c3c(F)cccc3F)c2)c(-c2ccnc(Nc3ccc(N4CCOCC4)nc3)n2)s1` [GSK1804250A], the potency estimated from few doses was 970 nM on ABL1 [2] and 126 nM at ABL2 [5]. The CATDS is recorded as 0 on ACAD11; 0 at AAK1; 0.1009 at ABL2 [3]; 0.03302 at ABL1 [4]; 0 at ACOX1.

As for `CC(C)c1nc(-c2cccc(NS(=O)(=O)c3c(F)cccc3F)c2F)c(-c2ccnc(Nc3ccc(N4CCOCC4)nc3)n2)s1` [GSK2008607A], the results for the potency estimated from few doses at ABL1 [2] and at ABL2 [5] were 706 nM and 101 nM, respectively. Besides, the CATDS on ACAD11 is 0; on AAK1, 0; on ABL2 [3], 0.07581; at ABL1 [4] it was 0.02525; at ACOX1, 0.

As to `CCC(=O)Nc1cccc(Oc2nc(Nc3ccc(N4CCN(C)CC4)cc3OC)ncc2Cl)c1` [WZ4003, reference compound], in assay [1], the “selectivity in the Kinobeads assay” value is given as “poor selectivity”.

In the case of `CC(C)(C)S(=O)(=O)c1ccc2nccc(Nc3n[nH]c4ccc(F)cc34)c2c1` [GSK583, reference compound], the “chemical probe criteria (Kdapp < 1 µM and CATDSmost potent > 0.5)” value in assay [1] (Kinobeads data) is “fulfilled our criteria”.
